For orientation: IC50 means the concentration that gives 50% inhibition. Low values mean greater potency, high ones weaker potency. Usually Ki stands for a dissociation constant, usually derived from enzyme kinetics or from competition with a known ligand.

Molecules are shown by their SMILES.

Results on 16 molecules are retold here after ChEMBL document CHEMBL1138463, “Structure-based design, synthesis, and characterization of inhibitors of human and Plasmodium falciparum dihydroorotate dehydrogenases” (J Med Chem, 2009).

The target of assay [1] is Dihydroorotate dehydrogenase (quinone), mitochondrial (Homo sapiens, UniProt Q02127).
Chain of Dihydroorotate dehydrogenase (quinone), mitochondrial (Q02127 whole entry): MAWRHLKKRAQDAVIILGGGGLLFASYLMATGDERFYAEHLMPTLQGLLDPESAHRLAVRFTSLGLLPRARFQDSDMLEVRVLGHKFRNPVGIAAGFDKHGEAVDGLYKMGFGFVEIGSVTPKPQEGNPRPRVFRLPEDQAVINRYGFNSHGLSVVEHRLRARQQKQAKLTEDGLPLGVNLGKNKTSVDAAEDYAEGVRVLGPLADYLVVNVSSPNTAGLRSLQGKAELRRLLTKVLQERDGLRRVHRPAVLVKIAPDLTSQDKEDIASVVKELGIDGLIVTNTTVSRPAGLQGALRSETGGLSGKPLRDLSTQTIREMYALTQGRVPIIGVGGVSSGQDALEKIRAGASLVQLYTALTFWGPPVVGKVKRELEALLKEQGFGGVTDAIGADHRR
Description: Inhibition of ubiquinone binding site of human dihydroorotate dehydrogenase
In assay [2] the target is T1, Dihydroorotate dehydrogenase (Plasmodium falciparum, UniProt Q54A96).
T1 sequence (Q54A96 whole entry): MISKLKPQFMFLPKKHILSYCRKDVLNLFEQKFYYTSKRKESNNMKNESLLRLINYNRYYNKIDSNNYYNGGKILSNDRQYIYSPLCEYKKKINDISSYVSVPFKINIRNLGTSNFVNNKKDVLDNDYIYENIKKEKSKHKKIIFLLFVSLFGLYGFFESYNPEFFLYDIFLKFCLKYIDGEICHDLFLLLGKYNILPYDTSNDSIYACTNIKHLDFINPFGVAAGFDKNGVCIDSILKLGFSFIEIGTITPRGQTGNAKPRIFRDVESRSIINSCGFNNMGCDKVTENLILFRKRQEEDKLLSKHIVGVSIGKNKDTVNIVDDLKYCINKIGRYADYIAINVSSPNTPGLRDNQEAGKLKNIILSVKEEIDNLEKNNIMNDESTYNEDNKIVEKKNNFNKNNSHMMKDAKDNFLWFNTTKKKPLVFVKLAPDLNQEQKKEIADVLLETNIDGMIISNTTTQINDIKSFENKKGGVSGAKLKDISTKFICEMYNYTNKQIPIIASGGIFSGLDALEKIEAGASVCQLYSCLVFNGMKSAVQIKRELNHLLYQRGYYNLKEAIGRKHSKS
Description: Inhibition of ubiquinone binding site of Plasmodium falciparum dihydroorotate dehydrogenase

In assay [1], `C/C(O)=C(\C#N)C(=O)Nc1ccc(-c2cccc(Cl)c2Cl)cc1` returned an IC50 of 200 nM and a Ki of 25 nM. For the same molecule, in assay [2], the midpoint of inhibition, the IC50, lay at 27200 nM and the Ki is 3200 nM.
Regarding `CCOc1cccc(-c2ccc(NC(=O)/C(C#N)=C(/C)O)cc2)c1`, the IC50 in assay [1] was determined as 130 nM; in assay [2], 182000 nM. Further, the Ki in assay [1] is 16 nM; in assay [2] it was 21500 nM.
As for `C/C(O)=C(\C#N)C(=O)Nc1ccc(-c2ccccc2Cl)c(Cl)c1`, in assay [1], the IC50 came to 22 nM and the Ki worked out at 2.7 nM. For the same molecule, in assay [2], it took 165000 nM to reach half-maximal inhibition (IC50) and affinity was put at a Ki of 20500 nM.
With `N#C/C(C(=O)Nc1ccc(C(F)(F)F)cc1)=C(/O)C1CC1`, in assay [1], the IC50 turned out to be 117 nM and the affinity corresponds to a Ki of 14 nM. In assay [2], this molecule registered an IC50 of 92500 nM and a Ki of 11000 nM.
As to `C/C(O)=C(\C#N)C(=O)Nc1ccc(-c2ccccc2Cl)cc1`, the values for the IC50 in assay [1] and in assay [2] were 130 nM and 47400 nM, respectively. In addition, the Ki was determined as 16 nM in assay [1] and 5600 nM in assay [2].
In assay [1], `N#C/C(C(=O)Nc1ccc(-c2ccccc2)cc1)=C(/O)C1CC1` had an IC50 of 53 nM and a Ki of 7 nM.
In assay [1], `C/C(O)=C(\C#N)C(=O)Nc1ccc(-c2cccc(Cl)c2Cl)cc1Cl` displayed an IC50 of 330 nM and a Ki of 40 nM. In assay [2], this molecule showed an IC50 of 9900 nM and a Ki of 1200 nM.
The matching figures for `COc1ccccc1-c1ccc(NC(=O)/C(C#N)=C(/C)O)c(Cl)c1`: 200 nM, 25 nM, 8600 nM and 1000 nM.
Consider `C/C(O)=C(\C#N)C(=O)Nc1ccc(-c2cccc(Cl)c2)c(Cl)c1`, for which the IC50 came to 190 nM in assay [1] and 237000 nM in assay [2]. Moreover, the Ki in assay [1] turned out to be 23 nM; in assay [2], 28000 nM.
The matching figures for `C/C(O)=C(\C#N)C(=O)Nc1ccc(-c2ccccc2)cc1`: 90 nM, 25700 nM, 11 nM and 3000 nM.
With `C/C(O)=C(\C#N)C(=O)Nc1ccc(-c2ccccc2Cl)cc1C(F)(F)F`, in assay [1], the IC50 turned out to be 170 nM and the affinity corresponds to a Ki of 21 nM. In addition, in assay [2], half-maximal inhibition (IC50) required 6200 nM and the affinity corresponds to a Ki of 730 nM.
Take `C/C(O)=C(\C#N)C(=O)Nc1ccc(-c2ccccc2)cc1Cl`: in assay [1], the IC50 turned out to be 320 nM and the Ki is 39 nM. Also, in assay [2], the midpoint of inhibition, the IC50, lay at 51100 nM and the Ki was 6000 nM.
For `C/C(O)=C(\C#N)C(=O)Nc1ccc(-c2ccccc2Cl)cc1Cl` the same measures were 180 nM, 22 nM, 4000 nM and 480 nM.
For the molecule `C/C(O)=C(\C#N)C(=O)Nc1ccc(-c2cccc(Cl)c2)cc1Cl`, in assay [1], the IC50 is 1520 nM and the Ki was 190 nM. In assay [2], the IC50 is 49100 nM and the affinity corresponds to a Ki of 5800 nM.
In assay [1], `C/C(O)=C(\C#N)C(=O)Nc1ccc(-c2cccc(Cl)c2)cc1C(F)(F)F` returned a half-inhibitory concentration (IC50) of 86600 nM and a Ki of 10700 nM. Also, in assay [2], the midpoint of inhibition, the IC50, lay at 57200 nM and the Ki was found to be 6800 nM.
On to `C/C(O)=C(\C#N)C(=O)Nc1ccc(-c2c(Cl)cccc2Cl)cc1Cl`, for which, in assay [1], the IC50 worked out at 16500 nM and the Ki was found to be 2000 nM. In assay [2], this molecule showed an IC50 of 10200 nM and an inhibition constant Ki of 1200 nM.
